Reference: patent US20100009956A1, “NOVEL SUBSTITUTED PYRIMIDINES AS CYSTEINE PROTEASE INHIBITORS” (Glaxo Group Limited , a corporation, priority 2006, published 2010)
Where a name gives a salt, the structure may show the parent alone. Read-outs that look alike come from different tables or passages of the source.

Experiments:
Falcipain-2 = Falcipain-2 (Plasmodium falciparum, UniProt Q8I6U4); experiment: Falcipain-2 enzymatic assay (assay 1); format: biochemical
In short: (§1)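 Recombinant parasite enzyme with 30 uM H-D-VLR-AFC in 100 mM sodium acetate pH 5.5, 10 mM DTT, 0.5 mM CHAPS, 1% DMSO, ambient temperature. Endpoint after 60 minutes, quenched with 16.6 uM E-64; AFC fluorescence (ex 405/em 530). IC50 from four-parameter fit, apparent KI assuming competitive inhibition.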

Cathepsin K = target: T1, Cathepsin K (Homo sapiens, UniProt P43235); experiment: Cathepsin K enzymatic assay (assay 1); format: biochemical; conditions: human recombinant enzyme, Z-FR-AFC substrate, pH 5.5
T1 sequence (P43235 115-329): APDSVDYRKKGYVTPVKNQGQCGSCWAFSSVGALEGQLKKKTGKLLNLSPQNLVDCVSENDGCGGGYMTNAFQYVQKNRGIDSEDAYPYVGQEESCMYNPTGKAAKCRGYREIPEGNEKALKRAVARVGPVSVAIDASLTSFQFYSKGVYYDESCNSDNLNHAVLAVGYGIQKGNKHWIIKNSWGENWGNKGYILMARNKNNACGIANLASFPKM
In short: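 Human recombinant cathepsin K was assayed with the fluorogenic substrate Z-FR-AFC at 20 uM in 100 mM sodium acetate, pH 5.5, with 5 mM L-cysteine, 1 mM CHAPS, 5 mM EDTA and 1% DMSO. Enzyme plus substrate was added to wells holding inhibitor in DMSO. After 60 minutes at ambient temperature, 16.6 uM E-64 quenched the reaction. AFC fluorescence (excitation 405 nm, emission 530 nm) was read, and IC50 came from a four-parameter dose-response fit.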

Falcipain-3 = Falcipain-3 (Plasmodium falciparum, UniProt Q8IIL0); experiment: Falcipain-3 enzymatic assay (assay 1); format: biochemical
In short: as §1

[1] = tested on: Plasmodium falciparum parasite; experiment: Whole cell assay (assay 2); format: cell-based
Excerpt: Assay 2) Determination of Whole Cell Activity Against the Plasmodium falciparum Parasite
Compounds can be evaluated for whole cell actvity against the Plasmodium falciparum parasite according to the procedure described in Sijwali S. and Rosenthal P. J., (2004) Proceedings of the National Academy of Sciences of the United States of America (PNAS) 101 (13), 4384-4389 (see in particular “Measurement of Parasite Growth rates and Inhibitor Sensitivity” on page 4385); IC50 values can be calculated as described in Singh A. and Rosenthal P. J., (2001) Antimicrobial Agents and Chemotherapy 45(3), 949-951 (see in particular page 950, first column); synchronised parasites can be prepared as described in Divo A. A. et al., (1985) Protozool. 32, 59-64.

Cathepsin S = Cathepsin S (Homo sapiens, UniProt P25774); experiment: Cathepsin S enzymatic assay (assay 1); format: biochemical; conditions: human recombinant enzyme, KQKLR-AMC substrate, pH 6.5
Description: Assay 1) Determination of Falcipain-2, Falcipain-3, Vivapain-2, Cathepsin K Cathepsin S, Cathepsin L, and Cathepsin B Proteolytic Catalytic Activity
Assays for Falcipain-2, Falcipain-3, and Vivapain-2 are carried out with parasitic recombinant enzymes. Cathepsins K, S, L, and B are carried out with human recombinant enzymes. Standard assay conditions for the determination of kinetic constants used a fluorogenic peptide substrate, typically H-D-VLR-AFC (Falcipain-2, Falcipain-3, Vivapain-2), Z-FR-AFC (Cathepsin K, L, B), or KQKLR-AMC (Cathepsin S) and are determined in 100 mM sodium acetate, pH 5.5, containing 10 mM DTT and 0.5 mM CHAPS (Falcipain-2, Falcipain-3, Vivapain-2), and 100 mM sodium acetate, pH 5.5, containing 5 mM L-cysteine, 1 mM CHAPS and 5 mM EDTA (Cathepsin K, L, B), or 50 mM MES, pH 6.5, containing 0.5 mM CHAPS, 10 mM L-CYS, 5 mM EDTA (Cathepsin S). Stock substrate solutions are prepared at 20 mM in DMSO. The activity assays contained 30 uM substrate (Falcipain-2, Falcipain-3, Vivapain-2), 20 uM substrate (Cathepsin K), 25 uM substrate (Cathepsin B), 5 uM substrate (Cathepsin L), and 30 uM substrate (Cathepsin S). All assays contained 1% DMSO. […] All assays are conducted at ambient temperature as end point assays being quenched after 60 minutes with the exception of Cathepsin S at 90 minutes, with 16.6 uM E-64 in 1% DMSO. Product formation (AFC or AMC) is determined from fluorescence (excitation at 405 nm; emission at 530 nm, AFC, or excitation at 360 nm; emission at 460 nm, AMC) monitored with a LJL Aquest (Molecular Devices) fluorescent plate reader. In the case of kinetic reads (used in mechanism of action studies), the reaction is not quenched but is read in the plate reader every 3 minutes for approximately 90 minutes. In addition, the mechanism of action studies for Falcipain-2 utilize Z-LR-AMC as the substrate. Product formation is determined from the fluorescence of AMC, measured with a LJL Acquest (Molecular Devices) fluorescent plate reader (excitation at 360 nm; emission at 460 nm).
Potential inhibitors are evaluated using the quenched read (endpoint) method. Assays are carried out in the presence of variable concentrations of test compound. Reactions are initiated by addition of enzyme and substrate to wells containing inhibitor stamped in 100% DMSO. For endpoint assays, the reaction is quenched with the addition of E64. Dose response data is fit to an IC50 curve with preset fitting tools according to equation 1:
y=a+(b−a)/(1+(10^x/10^c)^d) (1)
where y is the response at a particular inhibitor concentration x, a is the minimum response value, b is the maximum response value, c is the IC50, and d is the slope of the IC50 curve. Assuming the compound is a competitive inhibitor, the apparent KI can be calculated from IC50, as shown in equation 2: […]

[2] = parasitic recombinant enzyme, H-D-VLR-AFC substrate, pH 5.5, endpoint read, read-out: Falcipain-3 IC50

Sequence of Falcipain-3 (Q8IIL0 243-492): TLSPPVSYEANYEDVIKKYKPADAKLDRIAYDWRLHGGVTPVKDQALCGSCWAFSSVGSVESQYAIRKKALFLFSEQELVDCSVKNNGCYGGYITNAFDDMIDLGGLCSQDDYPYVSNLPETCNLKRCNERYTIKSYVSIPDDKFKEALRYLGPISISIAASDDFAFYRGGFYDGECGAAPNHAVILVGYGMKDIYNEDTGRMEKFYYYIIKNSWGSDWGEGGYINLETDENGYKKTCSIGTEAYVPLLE
Sequence of Cathepsin S (P25774 115-331): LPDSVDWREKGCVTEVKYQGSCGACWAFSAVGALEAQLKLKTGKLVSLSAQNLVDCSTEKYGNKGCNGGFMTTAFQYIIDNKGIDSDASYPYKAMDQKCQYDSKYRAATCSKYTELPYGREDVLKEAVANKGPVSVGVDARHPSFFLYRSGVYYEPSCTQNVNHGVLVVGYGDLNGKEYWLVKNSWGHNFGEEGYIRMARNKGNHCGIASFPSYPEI
Sequence of Falcipain-2 (Q8I6U4 244-484): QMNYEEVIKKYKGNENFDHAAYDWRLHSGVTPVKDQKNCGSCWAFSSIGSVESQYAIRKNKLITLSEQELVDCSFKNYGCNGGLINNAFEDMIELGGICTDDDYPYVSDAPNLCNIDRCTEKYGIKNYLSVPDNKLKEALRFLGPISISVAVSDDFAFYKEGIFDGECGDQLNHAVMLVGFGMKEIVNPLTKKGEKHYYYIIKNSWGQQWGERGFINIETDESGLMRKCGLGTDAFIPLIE

CN1CCN(C2CCN(Cc3ccc(C(=O)NN(c4nc(C#N)ncc4Br)C4CCOCC4)cc3)CC2)CC1 [Example 29, N′-(5—Bromo-2-cyano-4-pyrimidinyl)-4-{[4-(4-methyl-1-piperazinyl)-1-piperidinyl]methyl}-N′-(tetrahydro-2H-pyran-4-yl)benzohydrazide trifluoroacetate]
IC50 (Falcipain-2): < 0.001 µM
IC50 (Cathepsin K): < 0.017 µM
IC50 (Falcipain-3; [2]): 0.0025 to 0.015 µM
IC50 ([1]; Plasmodium falciparum): 0.0025 to 0.015 µM

CCCN1CCN(c2ccc(C(=O)NN(c3nc(C#N)ncc3Br)C3CCCCC3)cc2)CC1 [Example 80, N′-(5-bromo-2-cyano-4-pyrimidinyl)-N′-cyclohexyl-4-(4-propyl-1-piperazinyl)benzohydrazide trifluoroacetate]
IC50 (Falcipain-2): < 0.001 µM
IC50 (Cathepsin K): < 0.0015 µM
IC50 (Falcipain-3): 0.015 to 0.15 µM
IC50 ([1]; Plasmodium falciparum): 0.15 to 0.25 µM
IC50 (Cathepsin S): < 0.2 µM

CN1CCN(C2CCN(Cc3ccc(C(=O)NN(c4nc(C#N)ncc4Cl)C4CCOCC4)cc3)CC2)CC1 [Example 34, N′-(5-Chloro-2-cyano-4-pyrimidinyl)-4-{[4-(4-methyl-1-piperazinyl)-1-piperidinyl]methyl}-N′-(tetrahydro-2H-pyran-4-yl)benzohydrazide trifluoroacetate]
IC50 (Falcipain-2): 0.001 to 0.0025 µM
IC50 (Cathepsin K): < 0.017 µM
IC50 (Falcipain-3): 0.0025 to 0.015 µM
IC50 ([1]; Plasmodium falciparum): 0.015 to 0.15 µM

CN(Cc1ccc(C(=O)NN(c2nc(C#N)ncc2Cl)C2CCCC2)cc1)CC1OCCO1 [Example 83, N′-(5-chloro-2-cyano-4-pyrimidinyl)-N′-cyclopentyl-4-{[(1,3-dioxolan-2-ylmethyl)(methyl)amino]methyl}benzohydrazide trifluoroacetate]
IC50 (Falcipain-2): < 0.001 µM
IC50 (Falcipain-3): 0.001 to 0.0025 µM
IC50 ([1]; Plasmodium falciparum): 0.15 to 0.25 µM

CN1CCN(Cc2ccc(C(=O)NN(c3nc(C#N)ncc3Br)C3CCCCC3)cc2)CC1 [Example 16, N′-(5-bromo-2-cyano-4-pyrimidinyl)-N′-cyclohexyl-4-[(4-methyl-1-piperazinyl)methyl]benzohydrazide trifluoroacetate]
IC50 (Falcipain-2): < 0.001 µM
IC50 (Cathepsin K): < 0.0015 µM
IC50 (Falcipain-3): 0.0025 to 0.015 µM
IC50 ([1]; Plasmodium falciparum): 0.015 to 0.15 µM
IC50 (Cathepsin S): < 1 µM

CC(C)N(CCN(C(=O)OC(C)(C)C)C(C)C)Cc1ccc(C(=O)NN(c2nc(C#N)ncc2Cl)C2CCCC2)cc1 [Example 85, 1,1-dimethylethyl{2-[[(4-{[2-(5-chloro-2-cyano-4-pyrimidinyl)-2-cyclopentylhydrazino]carbonyl}phenyl)methyl](1-methylethyl)amino]ethyl}(1-methylethyl)carbamate trifluoroacetate]
IC50 (Falcipain-2): < 0.001 µM
IC50 (Falcipain-3): 0.0025 to 0.015 µM
IC50 ([1]; Plasmodium falciparum): 0.15 to 0.25 µM
IC50 (Cathepsin S): < 0.2 µM

N′-(1-acetyl-4-piperidinyl)-N′-(5-bromo-2-cyano-4-pyrimidinyl)-4-[(4-methyl-1-piperazinyl)methyl]benzohydrazide trifluoroacetate [Example 37]
IC50 (Falcipain-2; parasitic recombinant enzyme, H-D-VLR-AFC substrate, pH 5.5, endpoint read, read-out: Falcipain-2 IC50): < 0.001 µM
IC50 (Falcipain-3; [2]): 0.015 to 0.15 µM
IC50 [1]: 0.015 to 0.15 µM

CN1CCN(c2ncc(C(=O)NN(c3nc(C#N)ncc3Cl)C3CCCC3)s2)CC1 [Example 77, N′-(5-chloro-2-cyano-4-pyrimidinyl)-N′-cyclopentyl-2-(4-methyl-1-piperazinyl)-1,3-thiazole-5-carbohydrazide trifluoroacetate]
IC50 (Falcipain-2): < 0.001 µM
IC50 (Falcipain-3): 0.015 to 0.15 µM
IC50 ([1]; Plasmodium falciparum): 0.015 to 0.15 µM

CN1CCN(Cc2ccc(-c3cncc(C(=O)NN(c4nc(C#N)ncc4Br)C4CCCC4)c3)cc2)CC1 [Example 45, N′-(5-bromo-2-cyano-4-pyrimidinyl)-N′-cyclopentyl-5-{4-[(4-methyl-1-piperazinyl)methyl]phenyl}-3-pyridinecarbohydrazide trifluoroacetate]
IC50 (Falcipain-2): < 0.001 µM
IC50 (Cathepsin K): < 0.0015 µM
IC50 (Falcipain-3): 0.0025 to 0.015 µM
IC50 ([1]; Plasmodium falciparum): 0.0025 to 0.015 µM
IC50 (Cathepsin S): < 0.2 µM

CC(=O)N1CCC(N(NC(=O)OC(C)(C)C)c2nc(C#N)ncc2Br)CC1 [Example 79, 1,1-dimethylethyl 2-(1-acetyl-4-piperidinyl)-2-(5-bromo-2-cyano-4-pyrimidinyl)hydrazinecarboxylate]
IC50 (Falcipain-2): < 0.001 µM
IC50 (Falcipain-3; [2]): 0.015 to 0.15 µM
IC50 ([1]; Plasmodium falciparum): 0.015 to 0.15 µM
IC50 (Cathepsin S): < 0.2 µM

CN1CCN(Cc2ccc(C(=O)NN(c3nc(C#N)ncc3Br)C3CCCC3)cc2)CC1 [Example 1A, N′-(5-bromo-2-cyano-4-pyrimidinyl)-N′-cyclopentyl-4-[(4-methyl-1-piperazinyl)methyl]benzohydrazide]
IC50 [1]: 0.0025 to 0.015 µM
IC50 (Cathepsin S): < 1 µM

CN(CCN(C)C(=O)OC(C)(C)C)Cc1ccc(C(=O)NN(c2nc(C#N)ncc2Cl)C2CCCC2)cc1 [Example 84, 1,1-dimethylethyl{2-[[(4-{[2-(5-chloro-2-cyano-4-pyrimidinyl)-2-cyclopentylhydrazino]carbonyl}phenyl)methyl](methyl)amino]ethyl}methylcarbamate trifluoroacetate]
IC50 (Falcipain-2): < 0.001 µM
IC50 (Falcipain-3): 0.0025 to 0.015 µM
IC50 ([1]; Plasmodium falciparum): 0.15 to 0.25 µM
IC50 (Cathepsin S): < 1 µM

CC(C)(C)N(CCO)Cc1ccc(C(=O)NN(c2nc(C#N)ncc2Cl)C2CCCC2)cc1 [Example 82, N′-(5-chloro-2-cyano-4-pyrimidinyl)-N′-cyclopentyl-4-{[(1,1-dimethylethyl)(2-hydroxyethyl)amino]methyl}benzohydrazide trifluoroacetate]
IC50 (Falcipain-2): < 0.001 µM
IC50 (Falcipain-3): 0.0025 to 0.015 µM
IC50 ([1]; Plasmodium falciparum): 0.0025 to 0.015 µM

CN1CCN(Cc2ccc(C(=O)NN(c3nc(C#N)ncc3Br)C3CCCC3)cc2)CC1 [Example 1B, N′-(5-bromo-2-cyano-4-pyrimidinyl)-N′-cyclopentyl-4-[(4-methyl-1-piperazinyl)methyl]benzohydrazide hydrochloride]
IC50 (Cathepsin K): < 0.0015 µM
IC50 ([1]; hydrochloride): 0.0025 to 0.015 µM
IC50 (Cathepsin S): < 0.2 µM
